IC50 and Activity data for 46 compounds are collected here from ChEMBL document CHEMBL1151803, “Melanin synthesis inhibitors from Lespedeza cyrtobotrya” (J Nat Prod, 2009).

Structures are written as SMILES.

Data set [1] is described as follows: Inhibition of melanin synthesis in NHEM after 24 hrs by liquid scintillation. The data set is classed as functional, Homo sapiens.
Data set [2] can be described thus: Cytotoxicity against NHEM cells assessed as cell viability 24 hrs by WST-8 assay. In kind it is cell-based. Particulars: human; call rule not given here.

As to `CC1(C)C=Cc2c(ccc(C(=O)CCc3ccc(O)cc3)c2O)O1`, in data set [1] (read-out: IC50), the IC50 came out at 2 µM. In addition, in data set [2], the Activity entry is recorded as “Non-toxic”.
As for `Cc1c(O)cc2c(c1O)C(=O)[C@H](O)[C@@H](c1ccc(O)cc1)O2`, the IC50 result in data set [1] is reported as “Not Active”. The Activity result in data set [2] is on record as “Non-toxic”.
For `Cc1c(O)cc2occ(-c3ccc(O)cc3)c(=O)c2c1O`, in that order: “Not Active” and “Non-toxic”.
Regarding `CC(C)=CCc1cc([C@@H]2CC(=O)c3ccc(O)cc3O2)ccc1O` [ABYSSINONE II], the IC50 in data set [1] (read-out: IC50) was determined as 2 µM. For the same compound, the Activity entry in data set [2] was “Non-toxic”.
For `OC[C@H]1O[C@@H](Oc2ccc(O)cc2)[C@H](O)[C@@H](O)[C@@H]1O` [ARBUTIN], the IC50 in data set [1] (read-out: IC50) came out at 2.2 µM.
Consider `CC(C)=CCc1cc2c(cc1O)O[C@H](c1ccc(O)cc1)CC2=O` [BAVACHIN], for which the IC50 in data set [1] (read-out: IC50) turned out to be 18 µM. Besides, in data set [2], the Activity entry was “Non-toxic”.
The like results for `COc1c(O)ccc(-c2coc3cc(O)cc(O)c3c2=O)c1OC` [BAVAISOFLAVANONE] were, in that order, 38.4 µM and “Non-toxic”.
For `CC(C)=CCc1c(O)ccc2c1O[C@H]1c3ccc(O)c(CC=C(C)C)c3OC[C@@H]21` [ERYBRAEDIN A], in that order: 2 µM and “Non-toxic”.
`CC(C)=CCc1cc2c(cc1O)OC[C@H]1c3ccc(O)c(CC=C(C)C)c3O[C@@H]21` [ERYBRAEDIN C]: the IC50 in data set [1] (read-out: IC50) came out at 5.5 µM. Moreover, the Activity result in data set [2] is reported as “Non-toxic”.
For `COc1c2c(cc3c1[C@@H]1Oc4ccc5c(c4[C@@H]1CO3)C=CC(C)(C)O5)OC(C)(C)C=C2` [GANGETININ], the IC50 in data set [1] (read-out: IC50) is 4.6 µM. In data set [2], the Activity entry was “Non-toxic”.
With `O=c1c(-c2ccc(O)cc2)coc2cc(O)cc(O)c12` [GENISTEIN], the IC50 in data set [1] (read-out: IC50) came to 29.2 µM. Further, the Activity entry in data set [2] was “Non-toxic”.
In the case of `Oc1ccc(O)cc1` [HYDROQUINONE], in data set [1] (read-out: IC50), the IC50 was 103 µM.
Regarding `CC(C)=CCc1c(O)ccc(C(=O)/C=C/c2ccc(O)cc2)c1O` [ISOBAVACHALCONE], the IC50 in data set [1] (read-out: IC50) was found to be 1.4 µM. For the same compound, the Activity result in data set [2] was “Non-toxic”.
In the case of `CC(C)=CCc1c(O)cc(O)c2c1O[C@H](c1ccc(O)cc1O)CC2=O` [LEACHIANONE G], the IC50 entry in data set [1] is “Not Active”. Also, in data set [2], the Activity entry was “Non-toxic”.
For `CC(C)=CCc1c(O)ccc2c1O[C@H](c1ccc(O)cc1)[C@@H](O)C2=O` [LESPECYRTIN A1], in that order: “Not Active” and “Non-toxic”.
With `C=C(C)C1Cc2c(ccc(C(=O)/C=C/c3ccc(O)cc3)c2O)O1` (stereo not drawn) [LESPECYRTIN B1], the IC50 in data set [1] (read-out: IC50) was found to be 1.3 µM. Besides, the Activity entry in data set [2] was “Non-toxic”.
As for `CC1(C)C=Cc2c(O)ccc(C(=O)/C=C/c3ccc(O)cc3)c2O1` [LESPECYRTIN B2], the IC50 in data set [1] (read-out: IC50) worked out at 1 µM. In addition, the Activity result in data set [2] was “Non-toxic”.
As for `CC(C)(O)C1Cc2c(O)ccc(C(=O)/C=C/c3ccc(O)cc3)c2O1` (stereo not drawn) [LESPECYRTIN B3], the IC50 in data set [1] (read-out: IC50) worked out at 9.1 µM. For the same compound, in data set [2], the Activity entry was “Non-toxic”.
For `C=C(C)C1Cc2c(ccc(C(=O)CCc3ccc(O)cc3)c2O)O1` (stereo not drawn) [LESPECYRTIN C1], in that order: 3 µM and “Non-toxic”.
The like results for `COc1cc([C@@H]2COc3cc(O)c(CC=C(C)C)cc3C2)c(O)cc1O` [LESPECYRTIN D1] were, in that order, 2.1 µM and “Non-toxic”.
For `CC1(C)C=Cc2cc3c(cc2O1)OC[C@H]1c2ccc4c(c2O[C@@H]31)C=CC(C)(C)O4` [LESPECYRTIN E1], the Activity entry in data set [2] is on record as “Non-toxic”.
On to `CC(C)=CCc1c(O)c2c(c3c1[C@@H]1COc4cc5c(cc4[C@@H]1O3)C=CC(C)(C)O5)C=CC(C)(C)O2` [LESPECYRTIN E2], for which the IC50 in data set [1] (read-out: IC50) is 3.7 µM. Besides, the Activity result in data set [2] was “Non-toxic”.
In the case of `CC(C)=CCc1cc2c(cc1O)OC[C@H]1c3c4c(c(O)c(CC=C(C)C)c3O[C@@H]21)OC(C)(C)C=C4` [LESPECYRTIN E3], the IC50 in data set [1] (read-out: IC50) was determined as 0.4 µM. Moreover, in data set [2], the Activity entry is listed as “Non-toxic”.
For `CC(C)=CCc1c(O)c2c(c3c1O[C@H]1c4cc5c(cc4OC[C@@H]31)OC(C)(C)C=C5)C=CC(C)(C)O2` [LESPECYRTIN E4], in that order: 4.5 µM and “Non-toxic”.
For `CC(C)=CCc1c(O)c(C)cc2c1O[C@H]1c3cc4c(cc3OC[C@@H]21)OC(C)(C)C=C4` [LESPECYRTIN E5], in that order: 1.5 µM and “Non-toxic”.
For `CC(C)=CCc1c(O)ccc2c1O[C@H]1c3cc(CCC(C)(C)O)c(O)cc3OC[C@@H]21` [LESPECYRTIN E6], in that order: 3.4 µM and “Non-toxic”.
Turning to `COc1cc2c(cc1O)O[C@H]1c3cc4c(cc3OC[C@@H]21)OC(C)(C)[C@H](O)C4` [LESPECYRTIN E7], the IC50 in data set [1] (read-out: IC50) worked out at 16 µM. In addition, the Activity result in data set [2] is given as “Non-toxic”.
On to `CC(C)=CCc1c(O)c(O)cc2c3c(oc12)-c1ccc(O)cc1OC3` [LESPECYRTIN F1], for which the IC50 entry in data set [1] is recorded as “Not Active”. The Activity result in data set [2] is given as “Non-toxic”.
In the case of `CC(C)=CCc1cc2c(cc1O)OCc1c-2oc2c(CC=C(C)C)c(O)c(O)cc12` [LESPECYRTIN F2], the half-maximal inhibitory concentration (IC50) in data set [1] (read-out: IC50) worked out at 15.9 µM. In addition, in data set [2], the Activity entry is “Non-toxic”.
`CC(C)=CCc1c(O)c(O)cc2c1oc1c3ccc(O)cc3oc(=O)c21` [LESPECYRTIN G1]: the IC50 entry in data set [1] is “Not Active”. In addition, the Activity entry in data set [2] is “Non-toxic”.
For `CC(C)=CCC1=C(O)C(Cc2c(-c3cc(CC=C(C)C)c(O)cc3O)oc3c(CC=C(C)C)c(O)c(O)cc23)=C[C@@H]2c3c(c4cc(CC=C(C)C)c(O)cc4oc3=O)O[C@H]12` [LESPECYRTIN H1], the IC50 in data set [1] (read-out: IC50) worked out at 8.9 µM. Moreover, the Activity result in data set [2] was “Non-toxic”.
As to `CC(C)=CCC1=C(O)C(C(=O)c2c(-c3cc(CC=C(C)C)c(O)cc3O)oc3c(CC=C(C)C)c(O)c(O)cc23)=C[C@@H]2c3c(c4cc(CC=C(C)C)c(O)cc4oc3=O)O[C@H]12` [LESPECYRTIN H2], in data set [1], the IC50 entry is “Not Active”. Further, the Activity entry in data set [2] was “Non-toxic”.
`CC(C)=CCC1=C(O)C(C(=O)c2c(-c3cc4c(cc3O)OC(C)(C)C=C4)oc3c(CC=C(C)C)c(O)c(O)cc23)=C[C@@H]2c3c(c4cc(CC=C(C)C)c(O)cc4oc3=O)O[C@H]12` [LESPECYRTIN H3]: the IC50 in data set [1] (read-out: IC50) worked out at 10.1 µM. Besides, the Activity result in data set [2] is listed as “Non-toxic”.
The like results for `CC(C)=CCC1=C(O)C(C(=O)c2c(-c3cc(CC=C(C)C)c(O)cc3O)oc3c4c(c(O)cc23)OC(C)(C)C=C4)=C[C@@H]2c3c(c4cc(CC=C(C)C)c(O)cc4oc3=O)O[C@H]12` [LESPECYRTIN H4] were, in that order, 6.2 µM and “Non-toxic”.
For `CC(C)=CCc1cc2c(cc1O)OC[C@H]1c3cc(C)c(O)c(CC=C(C)C)c3O[C@@H]21` [LESPEFLORIN G4], the IC50 in data set [1] (read-out: IC50) came to 3.2 µM. In data set [2], the Activity entry is “Non-toxic”.
With `CC(C)=CCc1cc2c(cc1O)oc(=O)c1c3cc(O)c(O)c(CC=C(C)C)c3oc21` [LESPEFLORIN I2], the IC50 in data set [1] (read-out: IC50) worked out at 25.7 µM. Besides, in data set [2], the Activity entry is reported as “Non-toxic”.
Turning to `CC(C)=CCc1cc(-c2oc3c(CC=C(C)C)c(O)c(O)cc3c2C(=O)c2cc3c(c(CC=C(C)C)c2O)O[C@H]2c4cc(CC=C(C)C)c(O)cc4OC[C@@H]32)c(O)cc1O` [LESPEFLORIN J3], in data set [2], the Activity result is recorded as “Non-toxic”.
Take `CC(C)=CCCC1(C)C=Cc2c(ccc(C(=O)/C=C/c3ccc(O)cc3)c2O)O1` (stereo not drawn) [LESPEOL]: in data set [1] (read-out: IC50), the IC50 was 2.4 µM. The Activity result in data set [2] is on record as “Non-toxic”.
Turning to `CC(C)=CCc1cc(/C=C/C(=O)c2ccc(O)cc2O)ccc1O` [LICOAGROCHALCONE A], the half-inhibitory concentration (IC50) in data set [1] (read-out: IC50) was determined as 3.2 µM. Moreover, in data set [2], the Activity entry was “Non-toxic”.
As to `O=C1C[C@@H](c2ccc(O)cc2)Oc2cc(O)ccc21` [LIQUIRTIGENIN], the IC50 in data set [1] (read-out: IC50) amounted to 14.7 µM. Further, the Activity result in data set [2] was “Non-toxic”.
Consider `O=C1C[C@@H](c2ccc(O)cc2)Oc2cc(O)cc(O)c21` [NARINGENIN], for which the IC50 in data set [1] (read-out: IC50) was 73.5 µM. Besides, the Activity entry in data set [2] is reported as “Non-toxic”.
Take `CC(C)=CCc1cc(-c2coc3cc(O)ccc3c2=O)ccc1O` [NEOBAVAISOFLAVONE]: the IC50 in data set [1] (read-out: IC50) was 9.4 µM. Moreover, the Activity entry in data set [2] was “Non-toxic”.
Consider `CC1(C)C=Cc2c(ccc3c2O[C@H]2c4ccc(O)cc4OC[C@@H]32)O1` [PHASEOLIN], for which the IC50 in data set [1] (read-out: IC50) came out at 7.5 µM. In addition, the Activity result in data set [2] is listed as “Non-toxic”.
`CC(C)=CCc1c(O)ccc2c1O[C@H]1c3ccc(O)cc3OC[C@@H]21` [PHASEOLLIDIN]: the IC50 in data set [1] (read-out: IC50) is 8.7 µM. In addition, in data set [2], the Activity entry is “Non-toxic”.
`CC(C)=CCc1c(O)cc2occ(-c3ccc(O)cc3O)c(=O)c2c1O` [UNCINANONE A]: in data set [1] (read-out: IC50), the IC50 turned out to be 5.4 µM. Also, the Activity entry in data set [2] is recorded as “Non-toxic”.
For `CC(C)=CCC/C(C)=C/Cc1c(O)ccc(C(=O)/C=C/c2ccc(O)cc2)c1O` [XANTHOANGELOL], in that order: 0.98 µM and “Non-toxic”.
